These results are taken from BindingDB's records for doi:10.1016/j.bmcl.2003.07.021 (Vicuron Pharmaceuticals, 2003).

What is called IC50 is the concentration needed to halve the response being measured.

The target of this assay is DNA gyrase (Escherichia coli). Put plainly: Inhibitory concentration against Escherichia coli by Escherichia coli DNA gyrase gel-based supercoil assay.

Compound `CCOC(=O)c1cn(CC)c2cc(N3CCN(C(=O)c4ccc(N5C[C@H](CNC(C)=O)OC5=O)cc4F)CC3)c(F)cc2c1=O` [7-(4-{4-[(S)-5-(Acetylamino-methyl)-2-oxo-oxazolidin-3-yl]-2-fluoro-benzoyl}-piperazin-1-yl)-1-ethyl-6-fluoro-4-oxo-1,4-dihydro-quinoline-3-carboxylic acid ethyl ester] displayed a 50% inhibitory concentration (IC50) of 12.5 µM.
